# Laboratory results as given in patent publication US6914045B2, “Glycopeptide antibiotics” (Wyeth Holdings Corporation, priority 2001, dated 2005).
# Key:
# Assay in all cases: in vitro antibacterial evaluation, MIC by broth dilution
# Assay type in all cases: cell-based
# Streptococcus sp. = conditions: broth dilution, 18 hours at 35° C.
# In short: (§1)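 Broth dilution per NCCLS standard M7-A2 in Muller-Hinton II […], with an inoculum of 5×10^5 CFU/mL and antibiotic spanning 64-0.06 μg/mL. The MIC is the lowest concentration that inhibits growth of the organism.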
# Escherichia coli = conditions: 18 hours at 35° C.
# In short: as §1
# Staphylococcus sp. = conditions: broth dilution, 18 hours at 35° C.
# In short: as §1
# Enterococcus sp. = conditions: broth dilution, 18 hours at 35° C.
# In short: as §1
# [1] = Enterococcus faecalis (ATCC 29212)
# [2] = Enterococcus faecalis (GC 4553)
# [3] = Enterococcus faecalis (GC 4554)
smiles,measurement,setting,value
"CC(c1ccccc1)C1NC(=O)CNC(=O)C(CO)NC(=O)C(C(O)C2CNC(=N)N2C2OC(CO)C(O)C(O)C2O)NC(=O)C(C(O)C2CNC(=N)N2)NC(=O)C(Cc2ccc(OC3OC(CO)C(OC4OC5COC(CC(C)(C)C)OC5C(O)C4O)C(O)C3O)cc2)NC1=O (stereo not drawn) [Example 110, Cyclo[glycyl-β-methylphenylalanyl-O-[4-O-[4,6-O-(3,3-dimethylbutylidene)hexopyranosyl]-hexopyranosyl]tyrosyl-3-(2-iminoimidazolidin-4-yl)seryl-3-(3-hexopyranosyl-2-iminoimidazolidin-4-yl)serylseryl]]",MIC Streptococcus agalactiae (GC 4564),Streptococcus sp.; Streptococcus agalactiae (GC 4564),<0.5 µg/mL
same,MIC Streptococcus pneumoniae (GC 4565),Streptococcus sp.; Streptococcus pneumoniae (GC 4565),<0.5 µg/mL
same,MIC Streptococcus pyogenes (ID-3187),Streptococcus sp.; Streptococcus pyogenes (ID-3187),<0.5 µg/mL
same,MIC Streptococcus agalactiae (GC 4564),Streptococcus sp.; strain GC 4564,<0.5 µg/mL
same,MIC Streptococcus pneumoniae (GC 4565),Streptococcus sp.; strain GC 4565,<0.5 µg/mL
same,MIC Streptococcus pyogenes (ID-3187),Streptococcus sp.; strain ID-3187,<0.5 µg/mL
same,MIC Escherichia coli (ATCC 25922),Escherichia coli; strain ATCC 25922,64 µg/mL
same,MIC Coagulase Negative Staphylococcus (GC 4547),Staphylococcus sp.,1 µg/mL
same,MIC Coagulase Negative Staphylococcus (GC 4548),Staphylococcus sp.,1 µg/mL
same,MIC Coagulase Negative Staphylococcus (GC 4549),Staphylococcus sp.,1 µg/mL
same,MIC Coagulase Negative Staphylococcus (GC 4551),Staphylococcus sp.,1 µg/mL
same,MIC Coagulase Negative Staphylococcus (ID-3941),Staphylococcus sp.,1 µg/mL
same,MIC Staphylococcus aureus (ATCC 29213),Staphylococcus sp.,1 µg/mL
same,MIC Staphylococcus aureus (GC 1131),Staphylococcus sp.,1 µg/mL
same,MIC Staphylococcus aureus (GC 4541),Staphylococcus sp.,1 µg/mL
same,MIC Staphylococcus aureus (GC 4542),Staphylococcus sp.,1 µg/mL
same,MIC Staphylococcus aureus (GC 4544),Staphylococcus sp.,2 µg/mL
same,MIC Staphylococcus aureus (GC 4545),Staphylococcus sp.,1 µg/mL
same,MIC Staphylococcus aureus-SMITH (GC 4543),Staphylococcus sp.,1 µg/mL
same,MIC Staphylococcus haemolyticus (GC 4546),Staphylococcus sp.,1 µg/mL
same,MIC Staphylococcus aureus (GC 1131),"Staphylococcus sp.; inoculum 5×10^5 CFU/mL, strain GC 1131",1 µg/mL
same,MIC Staphylococcus aureus (ATCC 29213),Staphylococcus sp.; strain ATCC 29213,1 µg/mL
same,MIC Staphylococcus aureus (GC 4541),Staphylococcus sp.; strain GC 4541,1 µg/mL
same,MIC Staphylococcus aureus (GC 4542),Staphylococcus sp.; strain GC 4542,1 µg/mL
same,MIC Staphylococcus aureus (GC 4544),Staphylococcus sp.; strain GC 4544,2 µg/mL
same,MIC Staphylococcus aureus (GC 4545),Staphylococcus sp.; strain GC 4545,1 µg/mL
same,MIC Staphylococcus haemolyticus (GC 4546),Staphylococcus sp.; strain GC 4546,1 µg/mL
same,MIC Coagulase Negative Staphylococcus (GC 4547),Staphylococcus sp.; strain GC 4547,1 µg/mL
same,MIC Coagulase Negative Staphylococcus (GC 4548),Staphylococcus sp.; strain GC 4548,1 µg/mL
same,MIC Coagulase Negative Staphylococcus (GC 4549),Staphylococcus sp.; strain GC 4549,1 µg/mL
same,MIC Coagulase Negative Staphylococcus (GC 4551),Staphylococcus sp.; strain GC 4551,1 µg/mL
same,MIC Coagulase Negative Staphylococcus (ID-3941),Staphylococcus sp.; strain ID-3941,1 µg/mL
same,MIC Staphylococcus aureus-SMITH (GC 4543),Staphylococcus sp.; strain SMITH GC 4543,1 µg/mL
same,MIC Enterococcus avium (GC 4558),Enterococcus sp.; Enterococcus avium (GC 4558),4 µg/mL
same,MIC Enterococcus faecalis (ATCC 29212),Enterococcus sp.; [1],4 µg/mL
same,MIC Enterococcus faecalis (GC 2242),Enterococcus sp.; Enterococcus faecalis (GC 2242),2 µg/mL
same,MIC Enterococcus faecalis (GC 4552),Enterococcus sp.; Enterococcus faecalis (GC 4552),4 µg/mL
same,MIC Enterococcus faecalis (GC 4553),Enterococcus sp.; [2],4 µg/mL
same,MIC Enterococcus faecalis (GC 4554),Enterococcus sp.; [3],2 µg/mL
same,MIC Enterococcus faecium (GC 2243),Enterococcus sp.; Enterococcus faecium (GC 2243),4 µg/mL
same,MIC Enterococcus faecium (GC 4556),Enterococcus sp.; Enterococcus faecium (GC 4556),2 µg/mL
same,MIC Enterococcus faecium (GC 4557),Enterococcus sp.; Enterococcus faecium (GC 4557),2 µg/mL
same,MIC Enterococcus faecalis (ATCC 29212),Enterococcus sp.; strain ATCC 29212,4 µg/mL
same,MIC Enterococcus faecalis (GC 2242),Enterococcus sp.; strain GC 2242,2 µg/mL
same,MIC Enterococcus faecium (GC 2243),Enterococcus sp.; strain GC 2243,4 µg/mL
same,MIC Enterococcus faecalis (GC 4552),Enterococcus sp.; strain GC 4552,4 µg/mL
same,MIC Enterococcus faecalis (GC 4553),Enterococcus sp.; strain GC 4553,4 µg/mL
same,MIC Enterococcus faecalis (GC 4554),Enterococcus sp.; strain GC 4554,2 µg/mL
same,MIC Enterococcus faecium (GC 4556),Enterococcus sp.; strain GC 4556,2 µg/mL
same,MIC Enterococcus faecium (GC 4557),Enterococcus sp.; strain GC 4557,2 µg/mL
same,MIC Enterococcus avium (GC 4558),Enterococcus sp.; strain GC 4558,4 µg/mL
"CC(C)CC(=O)OC1C(OC2C(CO)OC(Oc3ccc(CC4NC(=O)C(C(C)c5cccc(F)c5)NC(=O)CNC(=O)C(CO)NC(=O)C(C(O)C5CNC(=N)N5C5OC(CO)C(O)C(O)C5O)NC(=O)C(C(O)C5CNC(=N)N5)NC4=O)cc3)C(O)C2O)OC(CO)C(O)C1O (stereo not drawn) [Example 264a, Cyclo[glycyl-3-fluoro-β-methylphenylalanyl-O-[4-O-[2-O-(3-methylbutanoyl)hexopyranosyl]-hexopyranosyl]tyrosyl-3-(2-iminoimidazolidin-4-yl)seryl-3-(3-hexopyranosyl-2-iminoimidazolidin-4-yl)serylseryl]]",MIC Streptococcus agalactiae (GC 4564),Streptococcus sp.; strain GC 4564,8 µg/mL
same,MIC Streptococcus pyogenes (ID-3187),Streptococcus sp.; strain ID-3187,4 µg/mL
same,MIC Escherichia coli (ATCC 25922),Escherichia coli; Escherichia coli (ATCC 25922),64 µg/mL
same,MIC Escherichia coli (GC 4559),Escherichia coli; Escherichia coli (GC 4559),>64 µg/mL
same,MIC Escherichia coli (GC 4560),Escherichia coli; Escherichia coli (GC 4560),4 µg/mL
same,MIC Coagulase Negative Staphylococcus (GC 4547),Staphylococcus sp.,8 µg/mL
same,MIC Coagulase Negative Staphylococcus (GC 4548),Staphylococcus sp.,4 µg/mL
same,MIC Coagulase Negative Staphylococcus (GC 4549),Staphylococcus sp.,4 µg/mL
same,MIC Coagulase Negative Staphylococcus (GC 4551),Staphylococcus sp.,16 µg/mL
same,MIC Staphylococcus aureus (ATCC 29213),Staphylococcus sp.,16 µg/mL
same,MIC Staphylococcus aureus (GC 1131),Staphylococcus sp.,16 µg/mL
same,MIC Staphylococcus aureus (GC 4541),Staphylococcus sp.,16 µg/mL
same,MIC Staphylococcus aureus (GC 4542),Staphylococcus sp.,16 µg/mL
same,MIC Staphylococcus aureus (GC 4544),Staphylococcus sp.,8 µg/mL
same,MIC Staphylococcus aureus (GC 4545),Staphylococcus sp.,8 µg/mL
same,MIC Staphylococcus aureus-SMITH (GC 4543),Staphylococcus sp.,8 µg/mL
same,MIC Staphylococcus haemolyticus (GC 4546),Staphylococcus sp.,8 µg/mL
same,MIC Staphylococcus aureus (ATCC 29213),Staphylococcus sp.; strain ATCC 29213,16 µg/mL
same,MIC Staphylococcus aureus (GC 1131),Staphylococcus sp.; strain GC 1131,16 µg/mL
same,MIC Staphylococcus aureus (GC 4541),Staphylococcus sp.; strain GC 4541,16 µg/mL
same,MIC Staphylococcus aureus (GC 4542),Staphylococcus sp.; strain GC 4542,16 µg/mL
same,MIC Staphylococcus aureus (GC 4544),Staphylococcus sp.; strain GC 4544,8 µg/mL
same,MIC Staphylococcus aureus (GC 4545),Staphylococcus sp.; strain GC 4545,8 µg/mL
same,MIC Staphylococcus haemolyticus (GC 4546),Staphylococcus sp.; strain GC 4546,8 µg/mL
same,MIC Coagulase Negative Staphylococcus (GC 4547),Staphylococcus sp.; strain GC 4547,8 µg/mL
same,MIC Coagulase Negative Staphylococcus (GC 4548),Staphylococcus sp.; strain GC 4548,4 µg/mL
same,MIC Coagulase Negative Staphylococcus (GC 4549),Staphylococcus sp.; strain GC 4549,4 µg/mL
same,MIC Coagulase Negative Staphylococcus (GC 4551),Staphylococcus sp.; strain GC 4551,16 µg/mL
same,MIC Staphylococcus aureus-SMITH (GC 4543),Staphylococcus sp.; strain SMITH GC 4543,8 µg/mL
same,MIC Enterococcus avium (GC 4558),Enterococcus sp.; Enterococcus avium (GC 4558),>64 µg/mL
same,MIC Enterococcus faecalis (ATCC 29212),Enterococcus sp.; [1],64 µg/mL
same,MIC Enterococcus faecalis (GC 4553),Enterococcus sp.; [2],>64 µg/mL
same,MIC Enterococcus faecalis (GC 4554),Enterococcus sp.; [3],>64 µg/mL
same,MIC Enterococcus faecium (GC 2243),Enterococcus sp.; Enterococcus faecium (GC 2243),>64 µg/mL
same,MIC Enterococcus faecium (GC 4556),Enterococcus sp.; Enterococcus faecium (GC 4556),64 µg/mL
same,MIC Enterococcus faecium (GC 4557),Enterococcus sp.; Enterococcus faecium (GC 4557),32 µg/mL
same,MIC Enterococcus faecalis (ATCC 29212),Enterococcus sp.; strain ATCC 29212,64 µg/mL
same,MIC Enterococcus faecalis (GC 2242),Enterococcus sp.; strain GC 2242,64 µg/mL
same,MIC Enterococcus faecium (GC 2243),Enterococcus sp.; strain GC 2243,>64 µg/mL
same,MIC Enterococcus faecalis (GC 4552),Enterococcus sp.; strain GC 4552,>64 µg/mL
same,MIC Enterococcus faecalis (GC 4553),Enterococcus sp.; strain GC 4553,>64 µg/mL
same,MIC Enterococcus faecalis (GC 4554),Enterococcus sp.; strain GC 4554,>64 µg/mL
same,MIC Enterococcus faecium (GC 4556),Enterococcus sp.; strain GC 4556,64 µg/mL
same,MIC Enterococcus faecium (GC 4557),Enterococcus sp.; strain GC 4557,32 µg/mL
same,MIC Enterococcus avium (GC 4558),Enterococcus sp.; strain GC 4558,>64 µg/mL
